Legend:
[1] = system: acid proteases of the SC (stratum corneum); test: Activating potential on acid proteases of the stratum corneum (Enzchek Bodipyfl-casein fluorimetric assay); assay type: biochemical; details: for acid protease activity compared with the control / duration of the activating effect on acid proteases: 1 and 2 M; for acid protease activity compared with the control: 0.1M acetic buffer pH 5.0, SC enzymatic extract; for duration of the activating effect on acid proteases: readings up to 24 h
Method: (§1) Three properties were therefore studied: • The prodesquamating power, by the test of degradation of corneodesmosin in a controlled environment chamber with formulated products containing 5% active agent. […] P According to one of the aspects of the invention, the said compound of formula (I) has a corneodesmosin degrading effect which it stimulates.
The property of activating certain acid proteases of the SC (stratum corneum) is evaluated. The measurement of this activity is carried out by fluorimetric assay with the aid of the Enzchek kit (Molecular Probes). This protocol uses a Bodipyfl-casein substrate which, when hydrolysed, releases fluorescence. The fluorescence released is directly proportional to the protease activity. It is read directly on a 96-well plate in a spectrofluorimeter at 750V at an excitation of 485 nm and an emission of 535 nm.
The results obtained with N-(2-hydroxyethyl)urea (compound according to the invention) are compared with those for urea.
The molecules are prepared at 0, 1, 2 and 4 M in 0.1M acetic buffer; pH 5.0. An enzymatic extract is prepared from acetone powders. 2 ml of PBS buffer +0.1% Triton X100 are brought into contact for 1 h in crushed ice with 200 mg of stratum corneum acetone powders. The mixture is then ground in a potter device and then centrifuged for 10 min at 15 000 g at 4° C. The supernatant is collected. The Enzchek substrate diluted 1/200 is incorporated into each solution containing the molecules. The assays are repeated three times.
The reaction mixture is prepared directly in a white plate. 10 μl of enzymatic extract are added to 200 μl of solution containing the substrate at 0, 1, 2 or 4M. The readings are carried out at t0, 1 2 h, t 16 h and t 24 h.

corneodesmosin = test: Degradation of corneodesmosin in a controlled environment chamber (varnished strippings, immunoblot); assay type: biochemical; details: for percentages of residual corneodesmosin relative to the control: 5% active agent in base Arlacel/Myrj, 37° C., 70% relative humidity, 5 days, mean of 2 experiments, the lower the percentage, the higher the degradation
Description: as §1
The molecules are formulated in a neutral base Arlacel/Myrj. The products are in contact with varnished strippings under defined temperature, humidity and incubation time conditions. The corneodesmosin is assayed by immunodetection after incubation. It is studied on an immunoblot after electrophoretic separation and transfer onto a membrane. After specific labelling with the antibody G3619, it is visualized by chemiluminescence.
The Hydrovance® product, which is a mixture comprising N-(2-hydroxyethyl)urea marketed by the company National Starch, is compared with urea and with a control.
Rectangles of 3×3.5 cm^2 are cut out in varnished strippings made on the bottom of dry skin legs. They are treated with 42 mg of product (4 mg/cm^2) each. Controls and assays are carried out in parallel. The assays are incubated at 37° C. and 70% relative humidity for 5 days. The controls are kept for 5 days at −20° C. For each of the samples, acetone powders are made and weighed. The proteins are extracted with 100 μl of complete Laemmli buffer. They are assayed according to the Bradford method. The protein level of each sample is adjusted and will allow direct comparison of the various samples.
The proteins are separated by SDS-Page electrophoresis on 12% acrylamide gel. After transferring the proteins onto a PVDF membrane, the immunodetection is carried out with the anti-corneodesmosin antibody G3619 (Guy Serre) at 1/12 500 according to a conventional Western-blot technique. The visualization is performed by chemiluminescence. The bands detected by fluorSmax (Biorad) are quantified with the software quantity-one. […]
The results are expressed as percentages of residual corneodesmosin relative to the control −80° C. […]

[2] = system: keratins and proteins of the SC; test: "Keratolytic" potential: solubilization of keratins and proteins of the stratum corneum (electrophoresis gel); details: 2M in water +2% CHAPS; room temperature; 12.5% acrylamide gel, silver nitrate staining
Method: as §1
Urea is known for its denaturing activity on keratolytic proteins.
30 mg of acetone powders of stratum corneum of the bottom of the legs of volunteers are prepared and brought into contact with 3 ml of water +2% CHAPS (zwitterionic detergent) for 10 min at room temperature. The mixture is then ground in a potter device and centrifuged for 10 min at 15 000 g. The supernatant is removed. This method makes it possible to remove the very soluble keratins and proteins which would interfere with the interpretation of the results. The pellet is taken up in 300 μl of water+CHAPS and 20 μl are distributed into 10 Eppendorf tubes.
Each molecule to be studied is prepared at 2M in water +2% CHAPS.
200 μl of solution are mixed with 20 μl of extract of acetone powders. The assays are carried out in duplicate. A control with no reagent is performed in parallel. The reaction mixtures are incubated for 10 min at room temperature, they are ground in a potter device and then incubated for 50 min at room temperature. They are centrifuged for 10 min at 15 000 g. […]

SMILES | acid protease activity compared with the control [1] | duration of the activating effect on acid proteases [1] | percentages of residual corneodesmosin relative to the control (corneodesmosin) | solubilization of SC proteins, gel band pattern compared with urea [2] | acid protease activity ([1]; 4M, regardless of the time studied) | degradation of a protein substrate by the acid proteases of the SC ([1]; concentration of 0.5 to 2M, in particular 1M) | prodesquamating effect (corneodesmosin degradation) compared with urea (corneodesmosin; 5% in base Arlacel/Myrj)
NC(N)=O [urea] | slightly activating effect | up to two hours after the start of incubation | 30% |  |  |  | 
NC(=O)NCCO [Hydrovance, N-(2-hydroxyethyl)urea] | large increase in activity | long-lasting | 23% | distinguishable from urea by the appearance of low MW bands | marked decrease in activity | durably stimulates | slightly higher effect than urea
